Holding throughout (type): functional
For assay [1], the system named is Pseudomonas aeruginosa. The assay is described as follows: Antibacterial activity against Pseudomonas aeruginosa HPA101-1477 producing beta lactamase IMP1 by broth microdilution method. A general note: Broth dilution looks for growth in wells or tubes with falling amounts of substance.
The next assay deals with Providencia stuartii. The assay is described as follows: Antibacterial activity against Providencia stuartii 2772 producing beta lactamase AmpC by broth microdilution method.
Assay [2] has as its system Pseudomonas aeruginosa. The assay is described as follows: Antibacterial activity against Pseudomonas aeruginosa MK-1184 producing beta lactamase AmpC by broth microdilution method.
For assay [3], the system named is Escherichia coli. The assay is described as follows: Antibacterial activity against Escherichia coli 6226 producing beta lactamase KPC2 by broth microdilution method.
The test system of assay [4] is Klebsiella pneumoniae. As to the kind of experiment: Antibacterial activity against Klebsiella pneumoniae 4238 producing beta lactamase SHV1 by broth microdilution method.
The subject of assay [5] is Pseudomonas aeruginosa. As to the kind of experiment: Antibacterial activity against Pseudomonas aeruginosa 18SH producing beta lactamase AmpC by broth microdilution method.
The test system of assay [6] is Klebsiella pneumoniae. The assay is described as follows: Antibacterial activity against Klebsiella pneumoniae 4094 producing beta lactamase TEM26 by broth microdilution method.
Assay [7] has as its system Staphylococcus aureus. As to the kind of experiment: Antibacterial activity against Staphylococcus aureus 4116 producing betalactamase PC1 by broth microdilution method.
In another assay the test system is Morganella morganii. The assay is described as follows: Antibacterial activity against Morganella morganii 2574 producing beta lactamase AmpC by broth microdilution method.
The test system of assay [8] is Escherichia coli. As to the kind of experiment: Antibacterial activity against Escherichia coli producing beta lactamase TEM1 by broth microdilution method.
The subject of assay [9] is Escherichia coli. The assay is described as follows: Antibacterial activity against Escherichia coli 11732 producing beta lactamase CTX-M-15 by broth microdilution method.
The subject of assay [10] is Pseudomonas aeruginosa. As to the kind of experiment: Antibacterial activity against Pseudomonas aeruginosa 4083 producing beta lactamase OXA10 by broth microdilution method.
The test system of assay [11] is Serratia marcescens. The assay is described as follows: Antibacterial activity against Serratia marcescens 4104 producing beta lactamase AmpC by broth microdilution method.
Assay [12] concerns Pseudomonas aeruginosa. The assay is described as follows: Antibacterial activity against Pseudomonas aeruginosa 4352 producing beta lactamase AmpC by broth microdilution method.
The test system of a further assay is Klebsiella oxytoca. The assay is described as follows: Antibacterial activity against Klebsiella oxytoca 4076 producing beta lactamase K1 by broth microdilution method.
Assay [13] concerns Serratia marcescens. The assay is described as follows: Antibacterial activity against Serratia marcescens 7554 producing beta lactamase SME3 by broth microdilution method.
Assay [14] concerns Pseudomonas aeruginosa. As to the kind of experiment: Antibacterial activity against Pseudomonas aeruginosa 7052 producing beta lactamase VIM2 by broth microdilution method.
Assay [15] has as its system Enterobacter cloacae. As to the kind of experiment: Antibacterial activity against Enterobacter cloacae 908R producing beta lactamase AmpC by broth microdilution method.
Assay [16] concerns Enterobacter cloacae. As to the kind of experiment: Antibacterial activity against Enterobacter cloacae 4092 producing beta lactamase AmpC (E2) by broth microdilution method.
Assay [17] concerns Enterobacter cloacae. The assay is described as follows: Antibacterial activity against Enterobacter cloacae 4081 producing beta lactamase AmpC (E2) by broth microdilution method.
For assay [18], the system named is Enterobacter cloacae. The assay is described as follows: Antibacterial activity against Enterobacter cloacae 4080 producing beta lactamase AmpC (P99) by broth microdilution method.
For assay [19], the system named is Staphylococcus aureus. The assay is described as follows: Antibacterial activity against methicillin-resistant Staphylococcus aureus.
In assay [20] the test system is Staphylococcus aureus. As to the kind of experiment: Antibacterial activity against methicillin-susceptible Staphylococcus aureus.

3 compounds from ChEMBL document CHEMBL1143427, “Interactions of ceftobiprole with beta-lactamases from molecular classes A to D” (Antimicrob Agents Chemother, 2007) can be followed below.

In brackets after ≈: the same amount, converted by molar mass.

By MIC is commonly meant the least concentration at which growth counts as inhibited. Turning to `CO/N=C(\C(=O)N[C@@H]1C(=O)N2C(C(=O)[O-])=C(C[N+]3(C)CCCC3)CS[C@H]12)c1csc(N)n1`, the minimum inhibitory concentration (MIC) in the assay with Pseudomonas aeruginosa [1] was more than 32 µg/mL; against Providencia stuartii it was 0.25 µg/mL (≈ 0.52 µM); in the assay with Pseudomonas aeruginosa [2], 32 µg/mL (≈ 66.6 µM); in the assay on Escherichia coli [3], 16 µg/mL (≈ 33.3 µM); in the assay on Klebsiella pneumoniae [4] it was 0.25 µg/mL (≈ 0.52 µM); in the assay with Pseudomonas aeruginosa [5], 32 µg/mL (≈ 66.6 µM). Moreover, the MIC against Klebsiella pneumoniae [6] was determined as 4 µg/mL (≈ 8.32 µM); with Staphylococcus aureus [7] it was 2 µg/mL (≈ 4.16 µM); with Morganella morganii, 0.03 µg/mL (≈ 0.0624 µM); against Escherichia coli [8] it was 0.12 µg/mL (≈ 0.25 µM); against Escherichia coli [9], 16 µg/mL (≈ 33.3 µM); against Pseudomonas aeruginosa [10], 8 µg/mL (≈ 16.6 µM). Also, the MIC was 0.12 µg/mL (≈ 0.25 µM) against Serratia marcescens [11]; 2 µg/mL (≈ 4.16 µM) in the assay on Pseudomonas aeruginosa [12]; 2 µg/mL (≈ 4.16 µM) against Klebsiella oxytoca; 0.25 µg/mL (≈ 0.52 µM) against Serratia marcescens [13]; 128 µg/mL (≈ 266 µM) against Pseudomonas aeruginosa [14].

Consider `CC(C)(O/N=C(\C(=O)N[C@@H]1C(=O)N2C(C(=O)[O-])=C(C[n+]3ccccc3)CS[C@H]12)c1csc(N)n1)C(=O)O` [CEFTAZIDIME], for which the MIC in the assay on Enterobacter cloacae [15] is more than 64 µg/mL; in the assay on Pseudomonas aeruginosa [1], more than 32 µg/mL; in the assay with Providencia stuartii, 4 µg/mL (≈ 7.32 µM); in the assay on Pseudomonas aeruginosa [2] it was 32 µg/mL (≈ 58.5 µM); against Escherichia coli [3], 32 µg/mL (≈ 58.5 µM); in the assay with Klebsiella pneumoniae [4] it was 2 µg/mL (≈ 3.66 µM). The MIC in the assay with Enterobacter cloacae [16] is 1 µg/mL (≈ 1.83 µM); against Pseudomonas aeruginosa [5] it was 32 µg/mL (≈ 58.5 µM); in the assay with Klebsiella pneumoniae [6], more than 256 µg/mL; against Enterobacter cloacae [17] it was more than 128 µg/mL; against Staphylococcus aureus [7] it was 4 µg/mL (≈ 7.32 µM); with Morganella morganii, 1 µg/mL (≈ 1.83 µM). In addition, the MIC against Escherichia coli [8] came out at 0.5 µg/mL (≈ 0.915 µM); in the assay on Escherichia coli [9], 32 µg/mL (≈ 58.5 µM); in the assay on Pseudomonas aeruginosa [10], 2 µg/mL (≈ 3.66 µM); against Serratia marcescens [11], 0.25 µg/mL (≈ 0.457 µM); with Pseudomonas aeruginosa [12], 4 µg/mL (≈ 7.32 µM); against Klebsiella oxytoca it was 0.5 µg/mL (≈ 0.915 µM). The MIC against Enterobacter cloacae [18] was 64 µg/mL (≈ 117 µM); in the assay with Serratia marcescens [13], 0.5 µg/mL (≈ 0.915 µM); against Pseudomonas aeruginosa [14], 64 µg/mL (≈ 117 µM).

The MIC90 is the lowest concentration that inhibits either 90% of growth or 90% of the strains tested, depending on the study. Regarding `Nc1nc(/C(=N/O)C(=O)N[C@@H]2C(=O)N3C(C(=O)O)=C(/C=C4\CCN([C@@H]5CCNC5)C4=O)CS[C@H]23)ns1` [CEFTOBIPROLE], the MIC is 4 µg/mL (≈ 7.48 µM) against Enterobacter cloacae [15]; more than 32 µg/mL with Pseudomonas aeruginosa [1]; 0.015 µg/mL (≈ 0.0281 µM) against Providencia stuartii; 32 µg/mL (≈ 59.9 µM) against Pseudomonas aeruginosa [2]; 16 µg/mL (≈ 29.9 µM) against Escherichia coli [3]; 0.5 µg/mL (≈ 0.935 µM) against Klebsiella pneumoniae [4]. Further, the MIC against Enterobacter cloacae [16] was found to be 0.12 µg/mL (≈ 0.224 µM); with Pseudomonas aeruginosa [5] it was 16 µg/mL (≈ 29.9 µM); against Klebsiella pneumoniae [6] it was 0.25 µg/mL (≈ 0.468 µM); against Enterobacter cloacae [17], 1 µg/mL (≈ 1.87 µM); against Staphylococcus aureus [7], 0.25 µg/mL (≈ 0.468 µM); with Morganella morganii, 0.03 µg/mL (≈ 0.0561 µM). Besides, the MIC is 0.5 µg/mL (≈ 0.935 µM) with Escherichia coli [8]; more than 128 µg/mL against Escherichia coli [9]; 128 µg/mL (≈ 239 µM) in the assay with Pseudomonas aeruginosa [10]; 0.12 µg/mL (≈ 0.224 µM) with Serratia marcescens [11]; 4 µg/mL (≈ 7.48 µM) with Pseudomonas aeruginosa [12]; more than 32 µg/mL in the assay with Klebsiella oxytoca. For the same compound, the figures for the MIC against Enterobacter cloacae [18], against Serratia marcescens [13] and in the assay with Pseudomonas aeruginosa [14] were 2 µg/mL (≈ 3.74 µM), 0.25 µg/mL (≈ 0.468 µM) and more than 128 µg/mL, respectively. Moreover, the MIC90 is 2 µg/mL (≈ 3.74 µM) in the assay with Staphylococcus aureus [19] and 0.5 µg/mL (≈ 0.935 µM) against Staphylococcus aureus [20].
